Tests used:
[1] = biological target: T1, Polyamine deacetylase HDAC10 (Homo sapiens, UniProt Q969S8); assay: Inhibition of HDAC10 (unknown origin)
T1 sequence (Q969S8 whole entry): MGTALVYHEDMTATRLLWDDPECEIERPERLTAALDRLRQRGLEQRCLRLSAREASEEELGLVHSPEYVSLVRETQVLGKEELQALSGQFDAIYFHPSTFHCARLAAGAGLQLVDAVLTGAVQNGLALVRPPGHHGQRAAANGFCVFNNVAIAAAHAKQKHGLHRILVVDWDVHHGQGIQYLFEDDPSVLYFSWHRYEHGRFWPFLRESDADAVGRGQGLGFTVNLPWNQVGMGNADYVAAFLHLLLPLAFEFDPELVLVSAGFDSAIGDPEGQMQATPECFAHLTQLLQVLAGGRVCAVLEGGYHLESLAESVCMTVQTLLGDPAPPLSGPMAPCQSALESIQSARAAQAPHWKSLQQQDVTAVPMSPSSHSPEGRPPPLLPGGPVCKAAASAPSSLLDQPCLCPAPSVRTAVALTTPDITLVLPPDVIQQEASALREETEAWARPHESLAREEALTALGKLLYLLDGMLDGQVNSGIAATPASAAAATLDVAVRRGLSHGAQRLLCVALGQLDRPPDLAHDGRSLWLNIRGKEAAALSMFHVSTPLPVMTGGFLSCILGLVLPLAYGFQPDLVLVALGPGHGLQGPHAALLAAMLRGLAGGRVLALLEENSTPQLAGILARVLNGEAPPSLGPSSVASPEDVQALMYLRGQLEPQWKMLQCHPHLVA

[2] = biological target: Histone deacetylase 2 (Homo sapiens, UniProt Q92769); assay: Inhibition of HDAC2 (unknown origin)
Histone deacetylase 2, sequence (Q92769 whole entry): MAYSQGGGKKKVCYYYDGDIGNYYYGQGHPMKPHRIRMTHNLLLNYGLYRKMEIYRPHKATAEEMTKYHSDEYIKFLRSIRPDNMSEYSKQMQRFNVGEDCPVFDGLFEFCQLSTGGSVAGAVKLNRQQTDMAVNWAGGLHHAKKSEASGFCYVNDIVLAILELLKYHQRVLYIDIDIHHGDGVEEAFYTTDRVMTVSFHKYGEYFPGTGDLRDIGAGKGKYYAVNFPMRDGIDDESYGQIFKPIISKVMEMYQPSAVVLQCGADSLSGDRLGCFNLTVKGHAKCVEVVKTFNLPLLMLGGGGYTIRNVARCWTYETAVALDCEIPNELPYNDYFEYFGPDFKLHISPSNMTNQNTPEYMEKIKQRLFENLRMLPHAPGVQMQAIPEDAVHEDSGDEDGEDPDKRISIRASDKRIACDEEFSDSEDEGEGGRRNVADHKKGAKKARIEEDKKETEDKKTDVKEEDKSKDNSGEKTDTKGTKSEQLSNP

[3] = biological target: T2, Histone deacetylase 5 (Homo sapiens, UniProt Q9UQL6); assay: Inhibition of HDAC5 (unknown origin)
T2 sequence (Q9UQL6 whole entry): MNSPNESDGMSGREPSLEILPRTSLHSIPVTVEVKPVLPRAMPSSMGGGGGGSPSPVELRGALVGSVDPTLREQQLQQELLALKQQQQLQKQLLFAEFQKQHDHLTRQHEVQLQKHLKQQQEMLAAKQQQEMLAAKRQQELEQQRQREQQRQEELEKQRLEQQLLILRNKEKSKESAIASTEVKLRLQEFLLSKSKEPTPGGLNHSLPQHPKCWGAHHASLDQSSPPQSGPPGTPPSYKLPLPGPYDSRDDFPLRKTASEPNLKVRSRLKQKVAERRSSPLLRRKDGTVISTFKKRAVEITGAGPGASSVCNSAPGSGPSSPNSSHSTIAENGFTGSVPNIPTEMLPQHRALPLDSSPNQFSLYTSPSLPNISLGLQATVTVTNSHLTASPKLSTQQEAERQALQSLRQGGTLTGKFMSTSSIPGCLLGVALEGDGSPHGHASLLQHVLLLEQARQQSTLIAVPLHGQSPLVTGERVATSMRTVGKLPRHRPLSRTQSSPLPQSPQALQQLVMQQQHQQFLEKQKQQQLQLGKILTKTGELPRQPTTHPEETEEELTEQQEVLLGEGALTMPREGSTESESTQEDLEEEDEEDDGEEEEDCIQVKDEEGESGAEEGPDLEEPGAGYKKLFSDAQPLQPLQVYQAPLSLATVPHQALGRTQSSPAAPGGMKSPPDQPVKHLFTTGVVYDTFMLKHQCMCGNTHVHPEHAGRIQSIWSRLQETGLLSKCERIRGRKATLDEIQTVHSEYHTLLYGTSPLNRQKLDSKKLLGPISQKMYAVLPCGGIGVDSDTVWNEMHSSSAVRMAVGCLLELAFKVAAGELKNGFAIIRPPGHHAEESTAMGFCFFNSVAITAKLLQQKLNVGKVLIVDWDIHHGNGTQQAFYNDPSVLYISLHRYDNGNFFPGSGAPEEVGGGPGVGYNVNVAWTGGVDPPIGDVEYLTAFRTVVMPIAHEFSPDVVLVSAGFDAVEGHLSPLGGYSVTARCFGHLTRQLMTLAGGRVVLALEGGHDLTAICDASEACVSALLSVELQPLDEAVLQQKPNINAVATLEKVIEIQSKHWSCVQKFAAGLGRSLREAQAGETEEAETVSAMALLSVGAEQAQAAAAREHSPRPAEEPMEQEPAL

[4] = biological target: T3, Histone deacetylase 7 (Homo sapiens, UniProt Q8WUI4); assay: Inhibition of HDAC7 (unknown origin)
T3 sequence (Q8WUI4 whole entry): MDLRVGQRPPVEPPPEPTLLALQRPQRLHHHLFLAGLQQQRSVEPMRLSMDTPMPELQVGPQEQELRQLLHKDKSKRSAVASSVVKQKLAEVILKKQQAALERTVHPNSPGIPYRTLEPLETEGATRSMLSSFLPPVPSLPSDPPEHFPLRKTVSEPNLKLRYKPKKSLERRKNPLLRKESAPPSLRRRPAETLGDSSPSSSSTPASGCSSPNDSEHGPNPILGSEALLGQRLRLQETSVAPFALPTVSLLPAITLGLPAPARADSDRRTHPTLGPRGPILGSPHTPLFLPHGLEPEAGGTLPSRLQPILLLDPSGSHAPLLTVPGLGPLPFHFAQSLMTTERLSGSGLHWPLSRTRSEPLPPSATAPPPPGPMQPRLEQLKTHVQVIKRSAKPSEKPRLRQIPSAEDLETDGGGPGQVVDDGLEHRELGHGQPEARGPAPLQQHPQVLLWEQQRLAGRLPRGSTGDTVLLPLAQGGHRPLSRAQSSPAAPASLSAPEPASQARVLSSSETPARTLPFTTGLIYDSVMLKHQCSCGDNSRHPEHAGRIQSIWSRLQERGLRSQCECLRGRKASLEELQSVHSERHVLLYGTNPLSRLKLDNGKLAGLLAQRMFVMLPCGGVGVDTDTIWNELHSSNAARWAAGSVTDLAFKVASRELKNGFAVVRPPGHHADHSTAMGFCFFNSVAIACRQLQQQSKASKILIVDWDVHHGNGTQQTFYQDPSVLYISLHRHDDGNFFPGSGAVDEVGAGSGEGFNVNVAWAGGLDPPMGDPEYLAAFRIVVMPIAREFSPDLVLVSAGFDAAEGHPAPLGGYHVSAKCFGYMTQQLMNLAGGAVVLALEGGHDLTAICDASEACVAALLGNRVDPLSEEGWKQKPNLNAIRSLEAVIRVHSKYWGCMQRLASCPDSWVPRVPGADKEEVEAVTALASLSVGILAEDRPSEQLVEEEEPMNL

[5] = biological target: T4, Histone deacetylase 8 (Homo sapiens, UniProt Q9BY41); assay: Inhibition of HDAC8 (unknown origin)
T4 sequence (Q9BY41 whole entry): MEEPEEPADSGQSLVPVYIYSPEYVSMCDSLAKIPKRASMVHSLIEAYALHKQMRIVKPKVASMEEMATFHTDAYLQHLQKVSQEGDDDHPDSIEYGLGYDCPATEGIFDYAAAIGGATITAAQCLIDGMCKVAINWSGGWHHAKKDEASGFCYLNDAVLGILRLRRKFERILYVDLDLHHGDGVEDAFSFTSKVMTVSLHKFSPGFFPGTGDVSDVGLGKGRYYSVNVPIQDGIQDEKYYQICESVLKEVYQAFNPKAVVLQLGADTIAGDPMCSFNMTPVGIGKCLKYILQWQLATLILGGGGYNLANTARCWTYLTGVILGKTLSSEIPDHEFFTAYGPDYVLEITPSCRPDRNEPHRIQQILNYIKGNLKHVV

[6] = biological target: T5, Histone deacetylase 9 (Homo sapiens, UniProt Q9UKV0); assay: Inhibition of HDAC9 (unknown origin)
T5 sequence (Q9UKV0 whole entry, the tested form may be a part): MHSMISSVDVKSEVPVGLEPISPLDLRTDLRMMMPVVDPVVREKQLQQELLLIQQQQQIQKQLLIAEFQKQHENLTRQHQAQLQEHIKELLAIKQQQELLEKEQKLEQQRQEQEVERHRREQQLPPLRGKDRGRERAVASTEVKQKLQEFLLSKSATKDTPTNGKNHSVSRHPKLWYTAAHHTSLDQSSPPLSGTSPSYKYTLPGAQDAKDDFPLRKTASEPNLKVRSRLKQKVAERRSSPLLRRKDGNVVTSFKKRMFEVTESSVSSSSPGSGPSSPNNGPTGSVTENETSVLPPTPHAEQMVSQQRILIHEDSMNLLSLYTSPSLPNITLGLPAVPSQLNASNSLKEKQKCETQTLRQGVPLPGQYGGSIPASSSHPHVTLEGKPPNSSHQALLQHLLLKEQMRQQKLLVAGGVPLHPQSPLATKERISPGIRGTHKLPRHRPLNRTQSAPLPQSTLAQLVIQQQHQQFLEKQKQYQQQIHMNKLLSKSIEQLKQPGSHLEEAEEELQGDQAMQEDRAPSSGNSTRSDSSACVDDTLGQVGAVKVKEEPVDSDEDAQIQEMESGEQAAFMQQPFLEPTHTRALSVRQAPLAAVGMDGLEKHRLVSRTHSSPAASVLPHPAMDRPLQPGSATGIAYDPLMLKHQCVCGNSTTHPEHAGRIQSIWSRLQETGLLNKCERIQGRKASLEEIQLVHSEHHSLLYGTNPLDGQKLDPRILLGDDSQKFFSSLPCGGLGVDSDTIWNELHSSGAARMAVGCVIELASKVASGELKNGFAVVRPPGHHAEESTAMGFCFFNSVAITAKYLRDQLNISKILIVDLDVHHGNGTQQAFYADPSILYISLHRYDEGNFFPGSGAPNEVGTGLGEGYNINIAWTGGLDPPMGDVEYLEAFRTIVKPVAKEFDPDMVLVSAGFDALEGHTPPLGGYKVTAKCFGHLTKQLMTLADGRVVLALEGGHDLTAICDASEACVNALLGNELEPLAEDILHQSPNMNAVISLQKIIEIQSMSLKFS

[7] = biological target: T4, Histone deacetylase 8; assay: Inhibition of HDAC8 (unknown origin) using p53 (379 to 382 residues)(RHK(Ac)K(ac)AMC) as substrate by fluorescent method
[8] = biological target: Histone deacetylase 4 (Homo sapiens, UniProt P56524); assay: Inhibition of HDAC4 (unknown origin) using HDAC class IIa substrate (trifluoroacetyl-lysine-AMC) as substrate by fluorescent method
Histone deacetylase 4, sequence (P56524 whole entry): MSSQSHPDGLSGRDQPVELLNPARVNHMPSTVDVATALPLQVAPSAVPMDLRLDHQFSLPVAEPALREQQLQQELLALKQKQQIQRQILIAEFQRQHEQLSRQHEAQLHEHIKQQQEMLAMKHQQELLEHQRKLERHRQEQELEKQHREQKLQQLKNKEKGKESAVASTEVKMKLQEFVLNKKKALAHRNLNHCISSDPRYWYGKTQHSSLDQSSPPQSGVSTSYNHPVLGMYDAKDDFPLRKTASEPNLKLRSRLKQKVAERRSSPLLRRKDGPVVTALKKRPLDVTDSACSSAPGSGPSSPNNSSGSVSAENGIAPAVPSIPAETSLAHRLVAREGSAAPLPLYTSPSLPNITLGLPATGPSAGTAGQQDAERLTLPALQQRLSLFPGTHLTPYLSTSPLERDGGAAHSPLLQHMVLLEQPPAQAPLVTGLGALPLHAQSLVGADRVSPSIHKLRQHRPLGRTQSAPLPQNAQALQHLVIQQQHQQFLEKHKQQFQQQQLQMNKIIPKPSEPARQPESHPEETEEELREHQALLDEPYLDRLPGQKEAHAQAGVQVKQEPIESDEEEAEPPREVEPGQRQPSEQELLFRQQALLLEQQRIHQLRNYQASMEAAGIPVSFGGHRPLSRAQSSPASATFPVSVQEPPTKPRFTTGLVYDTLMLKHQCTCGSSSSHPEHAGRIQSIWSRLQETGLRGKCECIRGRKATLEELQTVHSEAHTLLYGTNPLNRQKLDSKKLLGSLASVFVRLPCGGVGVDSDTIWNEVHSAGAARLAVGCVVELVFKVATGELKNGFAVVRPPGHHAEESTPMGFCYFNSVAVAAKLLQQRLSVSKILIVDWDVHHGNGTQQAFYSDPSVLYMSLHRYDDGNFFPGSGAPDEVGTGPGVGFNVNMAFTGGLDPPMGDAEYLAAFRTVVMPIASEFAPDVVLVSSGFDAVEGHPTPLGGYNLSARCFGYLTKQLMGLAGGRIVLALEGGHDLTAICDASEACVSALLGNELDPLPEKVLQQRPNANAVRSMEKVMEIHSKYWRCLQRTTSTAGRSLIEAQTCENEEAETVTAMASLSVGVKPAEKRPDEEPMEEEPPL

[9] = biological target: T2, Histone deacetylase 5; assay: Inhibition of HDAC5 (unknown origin) using HDAC class IIa substrate (trifluoroacetyl-lysine-AMC) as substrate by fluorescent method
[10] = biological target: T5, Histone deacetylase 9; assay: Inhibition of HDAC9 (unknown origin) using HDAC class IIa substrate (trifluoroacetyl-lysine-AMC) as substrate by fluorescent method

IC50 [1]	IC50 [2]	IC50 [3]	IC50 [4]	IC50 [5]	IC50 [6]	IC50 [7]	IC50 [8]	IC50 [9]	IC50 [10]	Compound
> 10 µM	> 10 µM	> 10 µM	> 10 µM	6 µM	> 10 µM					CCCCCCCCCCCCCCCCNNC(=O)c1cccs1
						> 10 µM	> 10 µM	> 10 µM	> 10 µM	Cn1cc(-c2ccc(S(=O)(=O)n3ccc(/C=C/C(=O)Nc4ccccc4N)c3)cc2)cn1 [DOMATINOSTAT]

Source: ChEMBL document CHEMBL4765362, “Thirty Years of HDAC Inhibitors: 2020 Insight and Hindsight” (J Med Chem, 2020)
